Read-outs that look alike come from different tables or passages of the source. Ends that are not written are not given here.
Tests used:
SPase I Δ2-75 = SPase I Δ2-75 (Escherichia coli, UniProt P00803); details: data not shown
[1] = molecular target: T1, KAP25 alkaline phosphatase signal peptide signal peptide (Escherichia coli, UniProt P00634 = phosphatase); experiment: fluorescence
T1 chain: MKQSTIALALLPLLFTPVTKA

Q: Which “cleavage of KAP25 signal peptide” value (SPase I Δ2-75; 24 hours of incubation with the enzyme) does the source give for “KKKMKQSTIALALLPLLFTPVTKARTPEKKK-NH2 [KAP25]” here?
A: Its value is “about 7%”.

Q: What about the “cleavage of KAP25 signal peptide” value (SPase I Δ2-75; 36 hours of incubation with the enzyme) of the same molecule?
A: Its value is ~19%.

Q: And the “cleavage of KAP25 signal peptide” value (SPase I Δ2-75; 48 hours of incubation with the enzyme)?
A: The value was ~27%.

B1: Signal peptidase I cytoplasmic domain (protein)
chain: IVRSFIYEPFQIPSGSMMPTLLIGDFILVEKFAYGIKDPIYQKTLIETGHPKRGDIVVFKYPEDPKLDYIKRAVGLPGDKVTYDPVSKELTIQPGCSSGQACENALPVTYSNVEPSDFVQTFSRRNGGEATSGFFEVPKNETKENGIRLSERKETLGDVTHRILTVPIAQDQVGMYYQQPGQQLATWIVPPGQYFMMGDNRDNSADSRYWGFVPEANLVGRATAIWMSFDKQEGEWPTGLRLSRIGGIH
Q: Which Kd [1] does the source give for B1 here?
A: Its Kd is 250 nM.

From article PMC3277640 (Proteins, 2011)
